Patent publication US6495591B1, “Fungal efflux pump inhibitors” (Essential Therapeutics, Inc., priority 1997, dated 2002)
Like-named read-outs stand apart in the source and are kept apart here.

Key:
[1] = target: pCDRI (ABC) efflux pump in S. cerevisiae YEM-1 (Candida albicans, UniProt P43071); assay: cell-based; assay type: cell-based, C. albicans; conditions: for FEPIhalf (concentration needed to reduce activity of efflux pump by 50%): YEM-1 pCDRI, fluconazole fixed at FLUhalf 5.6
[2] = target: pCDR2 (ABC) efflux pump in S. cerevisiae YEM-37 (Candida albicans, UniProt P78595); assay: cell-based; assay type: cell-based, C. albicans; conditions: for FEPIhalf (concentration needed to reduce activity of efflux pump by 50%): YEM-37 pCDR2, fluconazole fixed at FLUhalf 1
[3] = target: pCgCDR (ABC) efflux pump in S. cerevisiae YEM-39 (Candida glabrata, UniProt Q6FK23); assay: cell-based; assay type: cell-based, C. glabrata; conditions: for FEPIhalf (concentration needed to reduce activity of efflux pump by 50%): YEM-39 pCgCDR, fluconazole fixed at FLUhalf 4
[4] = target: pBEN (MF) efflux pump in S. cerevisiae YEM-2 (Candida albicans, UniProt P28873); assay: cell-based; assay type: cell-based, C. albicans; conditions: for FEPIhalf (concentration needed to reduce activity of efflux pump by 50%): YEM-2 pBEN, fluconazole fixed at FLUhalf 5.6
[5] = target: pFLU (MF) efflux pump in S. cerevisiae YEM-38 (Candida albicans, UniProt G1UB37); assay: cell-based; assay type: cell-based, C. albicans; conditions: for FEPIhalf (concentration needed to reduce activity of efflux pump by 50%): YEM-38 pFLU, fluconazole fixed at FLUhalf 2
[6] = system: pCgBEN (MF) efflux pump in S. cerevisiae YEM-40; assay type: cell-based, C. glabrata
[7] = system: YEM 13 C. albicans BEN up; assay: microbe, parasite or virus in culture; assay type: cell-based; conditions: YEM 13, 24 hrs, 80% inhibition; for MIC of compound in the presence of fluconazole (+): 1/8 × MIC of fluconazole
[8] = system: YEM 15 C. albicans, CDR1CDR2 up; assay: microbe, parasite or virus in culture; assay type: cell-based; conditions: YEM 15, 24 hrs, 80% inhibition; for MIC of compound in the presence of fluconazole (+): 1/8 × MIC of fluconazole
[9] = system: YEM 53 C. krusei; assay: FEPI MIC with/without 1/8 fluconazole MIC at 24 hrs (Table 11); assay type: cell-based
[10] = system: YEM 17 C. glabrata, CgCDR up; assay type: cell-based; conditions: 24 hrs, 80% inhibition; for MIC of compound in the presence of fluconazole (+): 1/8 × MIC of fluconazole
[11] = system: YEM 51 C. glabrata wt; assay: FEPI MIC with/without 1/8 fluconazole MIC at 24 hrs (Table 11); assay type: cell-based
[12] = system: YEM 30 C. albicans wt; assay: as above; assay type: cell-based
[13] = system: YEM 24 C. albicans ΔCDR1, ΔCDR2; assay: microbe, parasite or virus in culture; assay type: cell-based; conditions: YEM 24, 24 hrs, 80% inhibition; for MIC of compound in the presence of fluconazole (+): 1/8 × MIC of fluconazole
[14] = system: YEM 27 C. albicans ΔCDR1ΔCDR2 ΔBENΔFLU1; assay: microbe, parasite or virus in culture; assay type: cell-based; conditions: YEM 27, 24 hrs, 80% inhibition; for MIC of compound in the presence of fluconazole (+): 1/8 × MIC of fluconazole
[15] = system: Aspergillus fumigatus; assay: FEPI MICs in combination with 1/4 the azole's MIC (Table 12); assay type: cell-based; parameters: FEPI MIC (alone): unit not given here; conditions: for FEPI MIC with itraconazole, 60% Inh / FEPI MIC with itraconazole, 80% Inh: itraconazole 0.063 μg/ml (1/4 MIC); for FEPI MIC with ketoconazole, 60% Inh / FEPI MIC with ketoconazole, 80% Inh: ketoconazole 4 μg/ml (1/4 MIC); for FEPI MIC (alone): no azole, 35° C., CM Broth
Description: The combinations were tested against a series of Candida strain with known expression of efflux pumps or with complete deletion of all known pumps and Aspergillus fumigatus. Results are reported as minimum inhibitory concentration (MIC) of […] in the presence or absence of […]. A total of 27 distinct milbemycins were studied.

[16] = YEM 53, 1/8 × MIC of fluconazole, 24 hrs, 80% inhibition
[17] = YEM 51, 1/8 × MIC of fluconazole, 24 hrs, 80% inhibition
[18] = YEM 30, 1/8 × MIC of fluconazole, 24 hrs, 80% inhibition
[19] = fluconazole 32 μg/ml (1/4 MIC), 60% inhibition
[20] = fluconazole 32 μg/ml (1/4 MIC), 80% inhibition
[21] = YEM-40 pCgBEN, fluconazole fixed at FLUhalf 2.8

Chain of pCgCDR (ABC) efflux pump in S. cerevisiae YEM-39 (Q6FK23 whole entry): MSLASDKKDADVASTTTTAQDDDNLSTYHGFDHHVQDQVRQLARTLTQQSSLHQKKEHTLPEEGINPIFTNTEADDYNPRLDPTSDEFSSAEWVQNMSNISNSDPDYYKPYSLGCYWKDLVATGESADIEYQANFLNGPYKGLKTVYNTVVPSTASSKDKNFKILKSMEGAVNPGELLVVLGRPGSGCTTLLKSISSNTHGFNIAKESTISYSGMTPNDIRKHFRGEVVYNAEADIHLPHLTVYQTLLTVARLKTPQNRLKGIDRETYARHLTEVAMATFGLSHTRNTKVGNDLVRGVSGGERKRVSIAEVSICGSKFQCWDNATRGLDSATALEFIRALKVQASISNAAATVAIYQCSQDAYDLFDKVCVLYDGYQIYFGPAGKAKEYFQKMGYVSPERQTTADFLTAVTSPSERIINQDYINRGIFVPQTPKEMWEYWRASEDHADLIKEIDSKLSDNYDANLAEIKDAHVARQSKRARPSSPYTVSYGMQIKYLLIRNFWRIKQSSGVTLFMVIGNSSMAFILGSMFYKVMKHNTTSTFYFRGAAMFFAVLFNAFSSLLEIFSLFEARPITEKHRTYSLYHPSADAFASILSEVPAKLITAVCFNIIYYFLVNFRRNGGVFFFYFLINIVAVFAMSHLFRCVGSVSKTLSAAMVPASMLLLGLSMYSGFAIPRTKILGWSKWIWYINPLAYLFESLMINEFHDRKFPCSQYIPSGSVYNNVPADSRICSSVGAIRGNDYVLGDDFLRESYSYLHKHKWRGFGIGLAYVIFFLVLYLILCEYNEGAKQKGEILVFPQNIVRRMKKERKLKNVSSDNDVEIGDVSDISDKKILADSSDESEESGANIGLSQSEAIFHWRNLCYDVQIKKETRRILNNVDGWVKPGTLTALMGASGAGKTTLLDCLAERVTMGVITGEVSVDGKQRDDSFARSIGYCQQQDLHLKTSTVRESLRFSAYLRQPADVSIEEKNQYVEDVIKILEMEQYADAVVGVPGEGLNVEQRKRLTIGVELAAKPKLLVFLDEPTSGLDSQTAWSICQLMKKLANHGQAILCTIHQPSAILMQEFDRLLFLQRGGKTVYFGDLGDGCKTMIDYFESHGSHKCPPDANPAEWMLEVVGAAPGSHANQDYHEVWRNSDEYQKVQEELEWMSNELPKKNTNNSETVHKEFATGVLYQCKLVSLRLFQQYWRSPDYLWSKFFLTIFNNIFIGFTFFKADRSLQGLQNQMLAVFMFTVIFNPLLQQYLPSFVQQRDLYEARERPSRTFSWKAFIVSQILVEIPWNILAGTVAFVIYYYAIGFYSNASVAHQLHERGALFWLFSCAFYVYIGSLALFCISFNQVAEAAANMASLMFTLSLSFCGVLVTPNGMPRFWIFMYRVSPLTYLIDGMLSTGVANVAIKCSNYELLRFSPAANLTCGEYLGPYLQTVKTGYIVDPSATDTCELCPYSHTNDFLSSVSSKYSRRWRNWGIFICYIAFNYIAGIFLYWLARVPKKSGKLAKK
Chain of pFLU (MF) efflux pump in S. cerevisiae YEM-38 (G1UB37 whole entry): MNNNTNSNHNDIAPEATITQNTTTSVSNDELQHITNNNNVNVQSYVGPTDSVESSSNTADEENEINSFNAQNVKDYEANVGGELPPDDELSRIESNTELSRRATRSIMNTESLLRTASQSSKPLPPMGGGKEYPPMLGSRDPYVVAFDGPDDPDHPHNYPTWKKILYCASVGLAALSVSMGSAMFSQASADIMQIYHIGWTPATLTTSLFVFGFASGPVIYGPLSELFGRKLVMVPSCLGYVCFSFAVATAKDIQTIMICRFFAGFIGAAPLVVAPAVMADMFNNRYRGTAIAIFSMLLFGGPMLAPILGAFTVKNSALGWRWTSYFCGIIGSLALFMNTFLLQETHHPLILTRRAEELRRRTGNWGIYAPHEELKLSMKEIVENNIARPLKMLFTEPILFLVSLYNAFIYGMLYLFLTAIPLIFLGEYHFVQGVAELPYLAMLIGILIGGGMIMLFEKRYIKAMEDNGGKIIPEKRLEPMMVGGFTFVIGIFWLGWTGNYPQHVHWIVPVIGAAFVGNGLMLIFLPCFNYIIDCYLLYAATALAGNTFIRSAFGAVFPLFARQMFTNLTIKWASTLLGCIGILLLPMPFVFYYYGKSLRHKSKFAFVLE
Chain of pCDRI (ABC) efflux pump in S. cerevisiae YEM-1 (P43071 whole entry): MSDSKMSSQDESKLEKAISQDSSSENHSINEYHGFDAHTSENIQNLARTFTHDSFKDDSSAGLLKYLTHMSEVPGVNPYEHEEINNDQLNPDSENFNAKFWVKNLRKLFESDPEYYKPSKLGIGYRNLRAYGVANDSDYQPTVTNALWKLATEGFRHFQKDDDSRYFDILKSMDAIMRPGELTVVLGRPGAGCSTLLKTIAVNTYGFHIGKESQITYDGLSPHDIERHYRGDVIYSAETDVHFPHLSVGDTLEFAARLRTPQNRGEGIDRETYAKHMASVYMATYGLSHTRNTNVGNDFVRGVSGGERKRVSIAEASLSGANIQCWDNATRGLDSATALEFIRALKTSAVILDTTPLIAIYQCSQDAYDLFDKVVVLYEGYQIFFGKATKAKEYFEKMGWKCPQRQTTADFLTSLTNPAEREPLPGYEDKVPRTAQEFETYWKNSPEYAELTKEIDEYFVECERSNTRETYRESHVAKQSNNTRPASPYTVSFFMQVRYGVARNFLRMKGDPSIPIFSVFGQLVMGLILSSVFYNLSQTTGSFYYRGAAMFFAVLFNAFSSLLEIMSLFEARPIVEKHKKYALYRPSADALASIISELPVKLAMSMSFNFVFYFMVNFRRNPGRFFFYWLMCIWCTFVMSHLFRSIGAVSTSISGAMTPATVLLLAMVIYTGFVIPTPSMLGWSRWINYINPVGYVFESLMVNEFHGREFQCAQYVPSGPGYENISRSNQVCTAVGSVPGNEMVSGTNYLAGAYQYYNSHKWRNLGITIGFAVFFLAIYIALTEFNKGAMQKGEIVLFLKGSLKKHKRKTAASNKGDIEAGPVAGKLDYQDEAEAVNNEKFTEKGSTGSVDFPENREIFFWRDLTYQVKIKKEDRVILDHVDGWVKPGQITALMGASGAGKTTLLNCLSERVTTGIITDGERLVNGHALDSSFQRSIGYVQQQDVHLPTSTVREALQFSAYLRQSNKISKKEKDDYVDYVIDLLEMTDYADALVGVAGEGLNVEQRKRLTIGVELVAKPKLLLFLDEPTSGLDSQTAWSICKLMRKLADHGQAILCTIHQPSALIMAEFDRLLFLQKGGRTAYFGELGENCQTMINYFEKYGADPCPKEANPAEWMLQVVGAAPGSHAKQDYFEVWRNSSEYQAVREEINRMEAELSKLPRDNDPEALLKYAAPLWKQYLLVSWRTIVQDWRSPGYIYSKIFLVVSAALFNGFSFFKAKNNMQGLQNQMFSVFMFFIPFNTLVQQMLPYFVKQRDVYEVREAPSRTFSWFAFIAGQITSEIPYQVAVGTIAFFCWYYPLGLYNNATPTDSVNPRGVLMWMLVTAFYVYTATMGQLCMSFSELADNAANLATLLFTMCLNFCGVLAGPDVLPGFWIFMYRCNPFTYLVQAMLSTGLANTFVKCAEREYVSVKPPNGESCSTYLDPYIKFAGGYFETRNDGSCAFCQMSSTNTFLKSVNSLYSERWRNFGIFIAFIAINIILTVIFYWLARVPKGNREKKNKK
Chain of pCDR2 (ABC) efflux pump in S. cerevisiae YEM-37 (P78595 whole entry): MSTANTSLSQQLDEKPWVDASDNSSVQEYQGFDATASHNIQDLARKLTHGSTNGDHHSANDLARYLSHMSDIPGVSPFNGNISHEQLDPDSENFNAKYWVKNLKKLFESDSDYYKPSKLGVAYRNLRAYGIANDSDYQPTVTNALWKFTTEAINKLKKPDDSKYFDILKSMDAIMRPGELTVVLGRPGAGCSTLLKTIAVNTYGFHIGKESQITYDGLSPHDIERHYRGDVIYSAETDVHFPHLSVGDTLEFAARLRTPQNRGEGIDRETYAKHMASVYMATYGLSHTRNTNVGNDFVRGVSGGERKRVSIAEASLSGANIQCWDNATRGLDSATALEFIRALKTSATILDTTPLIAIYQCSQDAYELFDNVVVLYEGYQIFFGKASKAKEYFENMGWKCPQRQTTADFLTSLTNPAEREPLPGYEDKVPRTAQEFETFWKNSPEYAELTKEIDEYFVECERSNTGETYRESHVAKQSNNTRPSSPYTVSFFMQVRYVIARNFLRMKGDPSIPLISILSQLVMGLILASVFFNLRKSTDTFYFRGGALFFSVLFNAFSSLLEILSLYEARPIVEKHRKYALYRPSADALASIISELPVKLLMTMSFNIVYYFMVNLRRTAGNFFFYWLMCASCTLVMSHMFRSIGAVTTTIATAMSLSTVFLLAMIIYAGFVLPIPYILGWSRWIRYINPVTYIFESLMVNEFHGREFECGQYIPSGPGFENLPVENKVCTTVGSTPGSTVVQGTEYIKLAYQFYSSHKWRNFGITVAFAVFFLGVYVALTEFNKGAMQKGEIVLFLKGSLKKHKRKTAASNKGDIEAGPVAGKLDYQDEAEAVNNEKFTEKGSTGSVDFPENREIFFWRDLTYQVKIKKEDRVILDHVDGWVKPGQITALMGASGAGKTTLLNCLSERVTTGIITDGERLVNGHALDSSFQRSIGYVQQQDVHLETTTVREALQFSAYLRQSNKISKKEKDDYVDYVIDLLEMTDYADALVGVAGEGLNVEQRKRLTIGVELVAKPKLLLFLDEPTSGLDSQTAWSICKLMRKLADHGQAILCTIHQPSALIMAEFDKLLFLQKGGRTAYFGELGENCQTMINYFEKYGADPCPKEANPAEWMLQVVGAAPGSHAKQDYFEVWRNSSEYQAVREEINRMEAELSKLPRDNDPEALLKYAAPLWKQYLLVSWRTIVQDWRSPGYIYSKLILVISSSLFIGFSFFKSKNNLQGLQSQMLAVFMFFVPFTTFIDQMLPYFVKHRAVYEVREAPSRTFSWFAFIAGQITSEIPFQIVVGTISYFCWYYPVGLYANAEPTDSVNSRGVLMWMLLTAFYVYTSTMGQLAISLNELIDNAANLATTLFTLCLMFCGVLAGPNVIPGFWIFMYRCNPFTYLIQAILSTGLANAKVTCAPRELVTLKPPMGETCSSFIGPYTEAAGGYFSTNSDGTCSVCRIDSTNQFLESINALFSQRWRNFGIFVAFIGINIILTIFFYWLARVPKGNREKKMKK

Compound | MIC of compound in the presence of fluconazole (+) [7] [µg/mL] | MIC of compound in the absence of fluconazole (−) [7] [µg/mL] | MIC of compound in the presence of fluconazole (+) [8] | MIC of compound in the absence of fluconazole (−) [8] [µg/mL] | MIC of compound in the absence of fluconazole (−) ([9]; YEM 53, 24 hrs, 80% inhibition) [µg/mL] | MIC of compound in the presence of fluconazole (+) [10] [µg/mL] | MIC of compound in the absence of fluconazole (−) [10] [µg/mL] | MIC of compound in the absence of fluconazole (−) ([11]; YEM 51, 24 hrs, 80% inhibition) [µg/mL] | MIC of compound in the absence of fluconazole (−) ([12]; YEM 30, 24 hrs, 80% inhibition) [µg/mL] | MIC of compound in the presence of fluconazole (+) [13] [µg/mL] | MIC of compound in the absence of fluconazole (−) [13] [µg/mL] | MIC of compound in the presence of fluconazole (+) [14] [µg/mL] | MIC of compound in the absence of fluconazole (−) [14] [µg/mL] | FEPI MIC with itraconazole, 60% Inh ([15]; 60% inhibition) | FEPI MIC with itraconazole, 80% Inh ([15]; 80% inhibition) | FEPI MIC with ketoconazole, 60% Inh ([15]; 60% inhibition) | FEPI MIC with ketoconazole, 80% Inh ([15]; 80% inhibition) | FEPI MIC (alone) ([15]; 80% inhibition) | IC50 [1] [µM] | IC50 [2] [µM] | further results
5-Keto-8-deoxymilbemycin β1 [Compound 22] | > 64 | > 64 | ≦0.03 | > 64 | > 64 | > 64 | > 64 | > 64 | > 64 | > 64 | > 64 | > 64 | > 64 | >64 | >64 | ≦0.063 | ≦0.063 | >64 |  |  | FEPIhalf (concentration needed to reduce activity of efflux pump by 50%) [1]: <0.06; FEPIhalf (concentration needed to reduce activity of efflux pump by 50%) [2]: 1; FEPIhalf (concentration needed to reduce activity of efflux pump by 50%) [3]: 64; FEPIhalf (concentration needed to reduce activity of efflux pump by 50%) [4]: >64; FEPIhalf (concentration needed to reduce activity of efflux pump by 50%) [5]: >64; FEPIhalf (concentration needed to reduce activity of efflux pump by 50%) [6]: >64; MIC of compound in the presence of fluconazole (+) [9, 16]: 8 µg/mL; MIC of compound in the presence of fluconazole (+) [11, 17]: > 64 µg/mL; MIC of compound in the presence of fluconazole (+) [12, 18]: ≦0.03; FEPI MIC with fluconazole, 60% Inh [15, 19]: >64; FEPI MIC with fluconazole, 80% Inh [15, 20]: >64
CC1=C[C@H]2C(=O)O[C@H]3C[C@@H](C/C=C(\C)C[C@@H](C)/C=C/C=C4\CO[C@H]([C@@H]1O)[C@@]42O)O[C@@]1(CC[C@H](C)[C@@H](C)O1)C3 [Compound 3, Milbemycin α1] | 32 | > 64 | ≦0.03 | > 64 | > 64 | 4 | > 64 | > 64 | > 64 | > 64 | > 64 | 8 | 8 | 8 | 16 | ≦0.063 | ≦0.063 | >64 | < 0.113 | 0.473 | IC50 [3]: 15.1 µM; IC50 [4]: 30.3 µM; FEPIhalf (concentration needed to reduce activity of efflux pump by 50%) [6, 21]: 32; MIC of compound in the presence of fluconazole (+) [9]: 0.06 µg/mL; MIC of compound in the presence of fluconazole (+) [11]: 16 µg/mL; MIC of compound in the presence of fluconazole (+) [12]: ≦0.03; FEPI MIC with fluconazole, 60% Inh [15]: 2; FEPI MIC with fluconazole, 80% Inh [15]: >64
CO[C@@H]1C(C)=C[C@H]2C(=O)O[C@H]3C[C@@H](C/C=C(\C)C[C@@H](C)/C=C/C=C4\CO[C@H]1[C@@]42O)O[C@@]1(CC[C@H](C)[C@@H](C)O1)C3 [Compound 4, Milbemycin α2] | > 64 | > 64 | ≦0.03 | > 64 | > 64 | 2 | > 64 | > 64 | > 64 | > 64 | > 64 | 64 | > 64 | 2 | >64 | 0.5 | 0.5 | >64 | 0.23 | 0.461 | IC50 [3]: 7.37 µM; IC50 [4]: > 118 µM; IC50 [5]: > 118 µM; FEPIhalf (concentration needed to reduce activity of efflux pump by 50%) [6, 21]: >64; MIC of compound in the presence of fluconazole (+) [9]: 8 µg/mL; MIC of compound in the presence of fluconazole (+) [11]: 4 µg/mL; MIC of compound in the presence of fluconazole (+) [12]: ≦0.03; FEPI MIC with fluconazole, 60% Inh [15]: 1; FEPI MIC with fluconazole, 80% Inh [15]: >64
CC[C@H]1O[C@]2(CC[C@@H]1C)C[C@@H]1C[C@@H](C/C=C(\C)C[C@@H](C)/C=C/C=C3\CO[C@@H]4[C@H](O)C(C)=C[C@@H](C(=O)O1)[C@]34O)O2 [Compound 7, Milbemycin α3] | > 64 | > 64 | 0.125 µg/mL | > 64 | > 64 | > 64 | > 64 | > 64 | > 64 | > 64 | > 64 | > 64 | > 64 | >64 | >64 | ≦0.063 | ≦0.063 | >64 | 0.921 | 14.7 | IC50 [3]: 29.5 µM; IC50 [4]: 29.5 µM; IC50 [5]: > 118 µM; FEPIhalf (concentration needed to reduce activity of efflux pump by 50%) [6, 21]: >64; MIC of compound in the presence of fluconazole (+) [9]: 16 µg/mL; MIC of compound in the presence of fluconazole (+) [11]: > 64 µg/mL; MIC of compound in the presence of fluconazole (+) [12]: ≦0.03; FEPI MIC with fluconazole, 60% Inh [15]: >64; FEPI MIC with fluconazole, 80% Inh [15]: >64
CCCCC(C)C(=O)OC1C(C)C(C)OC2(CC3CC(C/C=C(\C)CC(C)/C=C/C=C4\COC5C(O)C(C)=CC(C(=O)O3)C45O)O2)C1O (stereo not drawn) [Compound 8, Milbemycin α5] | > 64 | > 64 | 0.125 µg/mL | > 64 | > 64 | 2 | > 64 | > 64 | > 64 | > 64 | > 64 | > 64 | > 64 | 1 | 8 | ≦0.063 | ≦0.063 | >64 |  |  | FEPIhalf (concentration needed to reduce activity of efflux pump by 50%) [1]: 0.5; FEPIhalf (concentration needed to reduce activity of efflux pump by 50%) [2]: 2; FEPIhalf (concentration needed to reduce activity of efflux pump by 50%) [3]: 8; FEPIhalf (concentration needed to reduce activity of efflux pump by 50%) [4]: 16; FEPIhalf (concentration needed to reduce activity of efflux pump by 50%) [5]: >64; FEPIhalf (concentration needed to reduce activity of efflux pump by 50%) [6]: >64; MIC of compound in the presence of fluconazole (+) [9, 16]: 32 µg/mL; MIC of compound in the presence of fluconazole (+) [11, 17]: 8 µg/mL; MIC of compound in the presence of fluconazole (+) [12, 18]: ≦0.03; FEPI MIC with fluconazole, 60% Inh [15, 19]: 1; FEPI MIC with fluconazole, 80% Inh [15, 20]: >64
